Experimental data reported in US9533952B2, “N-prop-2-ynyl carboxamide derivatives and their use as TRPA1 antagonists” (Orion Corporation, priority 2012, dated 2017).

biological target: TRPA1 (Homo sapiens, UniProt O75762); test: Determination of TRPA1 activity in vitro (TRPA1 antagonism in vitro); assay type: cell-based; settings: procedure of Wei et al., Anesthesiology 111 (2009) 147-154
Sequence (O75762 whole entry): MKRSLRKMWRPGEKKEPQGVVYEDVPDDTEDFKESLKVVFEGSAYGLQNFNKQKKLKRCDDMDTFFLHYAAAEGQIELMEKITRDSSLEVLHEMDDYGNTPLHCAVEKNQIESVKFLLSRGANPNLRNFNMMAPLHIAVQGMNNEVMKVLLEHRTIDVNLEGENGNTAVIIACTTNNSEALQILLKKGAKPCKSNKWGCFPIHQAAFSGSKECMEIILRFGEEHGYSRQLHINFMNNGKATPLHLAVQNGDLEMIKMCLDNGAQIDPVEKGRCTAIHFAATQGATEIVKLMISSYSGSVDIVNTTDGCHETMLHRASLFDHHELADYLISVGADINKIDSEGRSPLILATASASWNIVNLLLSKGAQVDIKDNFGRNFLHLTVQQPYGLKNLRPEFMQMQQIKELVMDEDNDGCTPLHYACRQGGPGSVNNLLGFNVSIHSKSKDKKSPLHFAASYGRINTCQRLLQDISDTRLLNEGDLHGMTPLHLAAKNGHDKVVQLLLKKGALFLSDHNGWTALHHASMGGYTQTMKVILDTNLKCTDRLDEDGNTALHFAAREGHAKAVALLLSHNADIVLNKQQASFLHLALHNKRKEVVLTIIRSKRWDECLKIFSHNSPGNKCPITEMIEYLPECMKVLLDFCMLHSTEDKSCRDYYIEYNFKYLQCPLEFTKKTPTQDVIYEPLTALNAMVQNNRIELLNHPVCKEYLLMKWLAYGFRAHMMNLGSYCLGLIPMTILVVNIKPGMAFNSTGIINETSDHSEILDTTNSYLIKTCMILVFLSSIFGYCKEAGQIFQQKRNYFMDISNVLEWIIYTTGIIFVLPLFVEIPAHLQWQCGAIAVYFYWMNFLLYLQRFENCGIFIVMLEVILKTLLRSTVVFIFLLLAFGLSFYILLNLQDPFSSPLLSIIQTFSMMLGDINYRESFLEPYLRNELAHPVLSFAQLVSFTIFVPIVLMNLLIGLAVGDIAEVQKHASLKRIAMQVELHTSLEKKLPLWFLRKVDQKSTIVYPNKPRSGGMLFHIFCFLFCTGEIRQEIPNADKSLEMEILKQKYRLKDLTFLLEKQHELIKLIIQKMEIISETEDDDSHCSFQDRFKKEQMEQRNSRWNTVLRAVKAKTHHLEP

SMILES | IC50 [nM]
C#CC(C)(CC)NC(=O)c1cc(F)cnc1Nc1cccc(C#N)c1 (centres unmarked) [Example 178, 2-(3-Cyanophenylamino)-5-fluoro-N-(3-methylpent-1-yn-3-yl)nicotinamide] | 900
C#CC(C)(C)NC(=O)c1cc(F)ccc1NC1CC1 [Example 91, 2-(Cyclopropylamino)-5-fluoro-N-(2-methylbut-3-yn-2-yl)benzamide] | 7000
C#CC(C)(CC)NC(=O)c1cccnc1Nc1cc(OC)ccc1F (centres unmarked) [Example 180, 2-(2-Fluoro-5-methoxyphenylamino)-N-(3-methylpent-1-yn-3-yl)nicotinamide] | 1400
C#CC(C)(C)NC(=O)c1cc(Cl)cnc1NCC(C)(F)F [Example 59, 5-Chloro-2-(2,2-difluoropropylamino)-N-(2-methylbut-3-yn-2-yl)nicotinamide] | 2300
C#CC(C)(CC)NC(=O)c1cccnc1NC1CCC(F)(F)CC1 (centres unmarked) [Example 191, 2-(4,4-Difluorocyclohexylamino)-N-(3-methylpent-1-yn-3-yl)nicotinamide] | 600
C#CC(C)(C)NC(=O)c1cc(F)c(N2CCOCC2)nc1NC(C)C [Example 114, 5-Fluoro-2-(isopropylamino)-N-(2-methylbut-3-yn-2-yl)-6-morpholinonicotinamide] | 4300
C#CC(C)(C)NC(=O)c1ccc(C(F)(F)F)nc1NC(C)(C)C [Example 111, 2-(tert-Butylamino)-N-(2-methylbut-3-yn-2-yl)-6-(trifluoromethyl)-nicotinamide] | 2400
C#CC(C)(C)NC(=O)c1cccnc1Nc1ccccc1 [Example 127, N-(2-Methylbut-3-yn-2-yl)-2-(phenylamino)nicotinamide] | 4400
C#CC(C)(C)NC(=O)c1cnc(C(F)(F)F)nc1NC(C)(C)CC [Example 109, N-(2-Methylbut-3-yn-2-yl)-4-(tert-pentylamino)-2-(trifluoromethyl)-pyrimidine-5-carboxamide] | 5100
C#CC(C)(C)NC(=O)c1cc(F)c(F)cc1NC(C)C [Example 67, 4,5-Difluoro-2-(isopropylamino)-N-(2-methylbut-3-yn-2-yl)benzamide] | 5500
C#CC(C)(C)NC(=O)c1cc(Cl)ccc1NC(C)C [Example 4, 5-Chloro-2-(isopropylamino)-N-(2-methylbut-3-yn-2-yl)benzamide] | 4700
C#CC(C)(C)NC(=O)c1cc(SC)ccc1NCCC(F)(F)F [Example 78, N-(2-Methylbut-3-yn-2-yl)-5-(methylthio)-2-(3,3,3-trifluoropropyl-amino)benzamide] | 800
C#CC(C)(C)NC(=O)c1cc(F)cnc1NC1CCC1 [Example 25, 2-(Cyclobutylamino)-5-fluoro-N-(2-methylbut-3-yn-2-yl)nicotinamide] | 3000
C#CC(C)(C)NC(=O)c1cc2c(cc1NCCC(F)(F)F)OCCO2 [Example 6, N-(2-Methylbut-3-yn-2-yl)-7-(3,3,3-trifluoropropylamino)-2,3-dihydrobenzo[b][1,4]dioxine-6-carboxamide] | 11800
C#CC(C)(C)NC(=O)c1cc(Cl)cnc1Nc1cccnc1 [Example 138, 5-Chloro-N-(2-methylbut-3-yn-2-yl)-2-(pyridin-3-ylamino)nicotinamide] | 12000
C#CC(CC)(CC)NC(=O)c1cc(F)c(F)cc1NCCOC [Example 45, N-(3-Ethylpent-1-yn-3-yl)-4,5-difluoro-2-(2-methoxyethylamino)-benzamide] | 2000
C#CC(C)(C)NC(=O)c1cc(F)ccc1NCCC(F)(F)F [Example 104, 5-Fluoro-N-(2-methylbut-3-yn-2-yl)-2-(3,3,3-trifluoropropylamino)benzamide] | 1700
C#CC(C)(C)NC(=O)c1ccc(C#N)cc1NC1CCC1 [Example 37, 4-Cyano-2-(cydclobutylamino)-N-(2-methylbut-3-yn-2-yl)benzamide] | 3200

SMILES | IC50 [nM]
C#CC(C)(C)NC(=O)c1cc(Cl)cc(F)c1NC(C)C [Example 95, 5-Chloro-3-fluoro-2-(isopropylamino)-N-(2-methylbut-3-yn-2-yl)-benzamide] | 5600
C#CC(C)(C)NC(=O)c1cccnc1Nc1cc(F)cc(F)c1 [Example 151, 2-(3,5-Difluorophenylamino)-N-(2-methylbut-3-yn-2-yl)nicotinamide] | 500
C#CC(CC)(CC)NC(=O)c1cc(F)ccc1NCC [Example 103, 2-(Ethylamino)-N-(3-ethylpent-1-yn-3-yl)-5-fluorobenzamide] | 1800
C#CC(C)(C)NC(=O)c1cccnc1Nc1ccc(F)c(C#N)c1 [Example 181, 2-(3-Cyano-4-fluorophenylamino)-N-(2-methylbut-3-yn-2-yl)nicotinamide] | 2700
C#CC(C)(CC)NC(=O)c1cccnc1Nc1ccc(OC)c(Cl)c1 (centres unmarked) [Example 192, 2-(3-Chloro-4-methoxyphenylamino)-N-(3-methylpent-1-yn-3-yl)nicotinamide] | 700
C#CC(C)(C)NC(=O)c1cccnc1NC(C)(C)C [Example 101, 2-(tert-Butylamino)-N-(2-methylbut-3-yn-2-yl)nicotinamide] | 11900
C#CC(C)(CC)NC(=O)c1cccnc1Nc1cccc(OC)c1F (centres unmarked) [Example 170, 2-(2-Fluoro-3-methoxyphenylamino)-N-(3-methylpent-1-yn-3-yl)nicotinamide] | 4900
C#CC(C)(C)NC(=O)c1ccc(OC)cc1NCCC(F)(F)F [Example 73, 4-Methoxy-N-(2-methylbut-3-yn-2-yl)-2-(3,3,3-trifluoropropylamino)-benzamide] | 2200
C#CC(C)(C)NC(=O)c1cc(F)cc(F)c1NCCC(F)(F)F [Example 55, 3,5-Difluoro-N-(2-methylbut-3-yn-2-yl)-2-(3,3,3-trifluoropropylamino)-benzamide] | 1700
C#CC(C)(C)NC(=O)c1cc(F)cnc1Nc1cc(C)ns1 [Example 137, 5-Fluoro-N-(2-methylbut-3-yn-2-yl)-2-(3-methylisothiazol-5-ylamino)nicotinamide] | 9900
C#CC(C)(C)NC(=O)c1cc(Cl)cnc1NC(C)(C)C [Example 155, 2-(tert-Butylamino)-5-chloro-N-(2-methylbut-3-yn-2-yl)nicotinamide] | 800
C#CC(C)(C)NC(=O)c1cccnc1NCCCC [Example 100, 2-(Butylamino)-N-(2-methylbut-3-yn-2-yl)nicotinamide] | 6600
C#CC(C)(C)NC(=O)c1ccc(F)cc1NC(C)C [Example 83, 4-Fluoro-2-(isopropylamino)-N-(2-methylbut-3-yn-2-yl)benzamide] | 2900
C#CC(C)(C)NC(=O)c1cc(OC)c(OC)cc1NCC(C)C [Example 88, 2-(Isobutylamino)-4,5-dimethoxy-N-(2-methylbut-3-yn-2-yl)benzamide] | 14200
C#CC(C)(C)NC(=O)c1cc(C)ccc1NCC(F)(F)F [Example 40, 5-Methyl-N-(2-methylbut-3-yn-2-yl)-2-(2,2,2-trifluoroethylamino)-benzamide] | 2900
C#CC(C)(C)NC(=O)c1cc(F)c(F)cc1NCC(C)C [Example 62, 4,5-Difluoro-2-(isobutylamino)-N-(2-methylbut-3-yn-2-yl)benzamide] | 400
C#CC(C)(C)NC(=O)c1cc(Cl)cnc1NCC(F)F [Example 32, 5-Chloro-2-(2,2-difluoroethylamino)-N-(2-methylbut-3-yn-2-yl)nicotinamide] | 3800
